From patent US20170368207A1, “SELF-ASSEMBLED NANOSTRUCTURE AND METHOD FOR PREPARING THE SAME” (National Chiao Tung University, priority 2016, published 2017) come the findings set out here.

This data set is described as follows: Relaxivity of contrast agents (Table 4). The format is physicochemical. The text has this:
Relaxivities of a self-assembled nanostructure of the invention, gadodiamide, and carboxymethyl hexanoyl chitosan that physically encapsulates gadodiamide are as shown in Table 4. Hereinafter, the symbol “CHC+Gd” represents that there is only physical mixing between gadodiamide and carboxymethyl hexanoyl chitosan, while the symbol “CHC−Gd” represents that chemical bonding exists between gadodiamide and carboxymethyl hexanoyl chitosan (i.e., the self-assembled nanostructure of the invention).
As a molecule grafted to a paramagnetic metal of a contrast agent is larger, a rotation time between the paramagnetic metal and a solvent molecule becomes longer, so that the relaxivity of the contrast agent is enhanced. The higher the relaxivity of the contrast agent, the better the contrast effect, i.e., the more excellent the contrasting ability. In the self-assembled nanostructure of the invention, gadolinium (paramagnetic metal) has an amphiphilic chitosan (polymer) grafted thereto, and thus has a higher relaxivity than the relaxivities of the single gadodiamide and CHC+Gd. […] In other words, the contrast agent compound of the invention, after being grafted to the amphiphilic chitosan, produces a synergistic effect on the contrasting ability of the contrast agent compound.

SMILES strings stand for the structures.

On to `CNC(=O)CN(CCN(CCN(CC(=O)[O-])CC(=O)NC)CC(=O)[O-])CC(=O)[O-].[Gd+3]` [Gadodiamide, gadodiamide], for which the Relaxivity is 1.8158 mM⁻¹ s⁻¹.
